From patent US12611446B2, “Cannabinoid product for improving musculoskeletal health” (Lonza Greenwood LLC, priority 2019, dated 2026)
Marks after values point to notes of the source that are not given here.

Assays:
[1] = test system: Sodium Monoiodoacetate Induced Osteoarthritis(OA) in Rats; test: Effect of UC-II undenatured Type II collagen and cannabidiol on sodium monoiodoacetate (MIA) induced osteoarthritis in rats: metabolic, inflammatory and oxidative stress markers; type: in vivo; conditions: MIA-induced OA male Wistar rats, 30 days; for COMP (cartilage oligomeric matrix protein) / CRP (c-reactive protein) / IL-1β (interleukin-1β) / IL-6 (interleukin-6) / PGE2 (prostaglandin E2) / TNF-α (tumor necrosis factor α): serum
Method: OA was induced in male Wistar rats by intra-articular injection of sodium monoiodoacetate (MIA: 1 mg/kg). Treatment was started a week before injection with MIA and lasted 30 days. Biomarker testing was conducted prior to 24 days post MIA.

[2] = test system: Sodium Monoiodoacetate Induced Osteoarthritis(OA) in Rats; test: Effect of UC-II undenatured Type II collagen and cannabigerol on sodium monoiodoacetate (MIA) induced osteoarthritis in rats: metabolic, inflammatory and oxidative stress markers; type: in vivo; conditions: MIA-induced OA female rats, 30 days
Method: […] Treatment was started a week before injection with MIA and lasted 30 days. Biomarker testing was conducted prior to 24 days post MIA.
The dosage levels were the same.

[3] = CBD1 = CBD 1.62 mg/kg (combination: + UC-II 4 mg/kg)
[4] = CBD2 = CBD 3.24 mg/kg (combination: + UC-II 4 mg/kg)
[5] = CBGI = CBG 1.62 mg/kg (combination: + UC-II 4 mg/kg)
[6] = CBGII = CBG 3.24 mg/kg (combination: + UC-II 4 mg/kg)

In the case of `C=C(C)[C@@H]1CCC(C)=C[C@H]1c1c(O)cc(CCCCC)cc1O` [CBD, cannabidiol], the “ALB (Albumin)” value [1, 3] is reported as 3.59 ± 0.13^ab g/dL, the “ALP (Alkaline phosphatase)” value [1, 3] is reported as 137.14 ± 8.95^a U/L and the “ALT (Alanine aminotransferase)” value [1, 3] is reported as 69.14 ± 7.63 U/L. For the same molecule, the “AST (Aspartate aminotransferase)” value [1, 3] was 108.43 ± 13.4 U/L, the “BUN (Blood Urine Nitrogen)” value [1, 3] was 23.57 ± 2.27 mg/dL and the “CAT (catalase)” value [1, 3] was 125.79 ± 7.41^d U/mL. For the same molecule, the “CR (Creatine)” value [1, 3] was 0.45 ± 0.11 mg/dL, the “GLOB (Globulin)” value [1, 3] was 3.16 ± 0.05^b g/dL and the “GLU (Glucose)” value [1, 3] was 112.43 ± 11.52 mg/dL. The “MDA (malondialdehyde)” value [1, 3] was 1.28 ± 0.08^b nmol/mL, the “OCN (osteocalcin)” value [1, 3] was 28.20 ± 1.74^e μg/mL and the “SOD (superoxide dismutase)” value [1, 3] was 50.00 ± 1.82^de U/mL. The “TBIL (Total Bilirubin)” value [1, 3] was 0.20 ± 0.01 mg/dL, the “TP (Total Protein)” value [1, 3] was 6.71 ± 0.17 g/dL and the “ALB (Albumin)” value [1, 4] was 3.57 ± 0.14^ab g/dL. For the same molecule, the “ALP (Alkaline phosphatase)” value [1, 4] was 140.43 ± 8.40^a U/L, the “ALT (Alanine aminotransferase)” value [1, 4] was 70.29 ± 5.56 U/L and the “AST (Aspartate aminotransferase)” value [1, 4] was 110.29 ± 12.58 U/L. For the same molecule, the “BUN (Blood Urine Nitrogen)” value [1, 4] was 24.23 ± 1.27 mg/dL, the “CAT (catalase)” value [1, 4] was 139.36 ± 3.44b^c U/mL and the “CR (Creatine)” value [1, 4] was 0.45 ± 0.08 mg/dL. The “GLOB (Globulin)” value [1, 4] was 3.27 ± 0.23^ab g/dL, the “GLU (Glucose)” value [1, 4] was 109.86 ± 5.81 mg/dL and the “GSH-Px (glutathione peroxidase)” value [1, 4] was 85.31 ± 3.85^bc U/mL. For the same molecule, the “MDA (malondialdehyde)” value [1, 4] was 1.24 ± 0.16^b nmol/mL, the “OCN (osteocalcin)” value [1, 4] was 33.35 ± 3.18^d μg/mL and the “SOD (superoxide dismutase)” value [1, 4] was 58.04 ± 2.76^c U/mL. The “TBIL (Total Bilirubin)” value [1, 4] was 0.20 ± 0.01 mg/dL, the “TP (Total Protein)” value [1, 4] was 6.87 ± 0.37 g/dL and the “COMP (cartilage oligomeric matrix protein)” value [1, 3] was 21.22 ± 1.77^c ng/mL. The “CRP (c-reactive protein)” value [1, 3] was 6.39 ± 1.06^c mg/L, the “IL-1β (interleukin-1β)” value [1, 3] was 34.92 ± 2.23^bc pg/mL and the “IL-6 (interleukin-6)” value [1, 3] was 30.83 ± 2.17^c pg/mL. For the same molecule, the “PGE2 (prostaglandin E2)” value [1, 3] was 504.41 ± 37.35^bc pg/mL, the “TNF-α (tumor necrosis factor α)” value [1, 3] was 46.58 ± 0.87^c pg/mL and the “COMP (cartilage oligomeric matrix protein)” value [1, 4] was 16.32 ± 1.91^d ng/mL. The “CRP (c-reactive protein)” value [1, 4] was 3.95 ± 0.20^d mg/L, the “IL-1β (interleukin-1β)” value [1, 4] was 31.94 ± 1.91^cd pg/mL and the “IL-6 (interleukin-6)” value [1, 4] was 28.65 ± 2.17^c pg/mL. For the same molecule, the “PGE2 (prostaglandin E2)” value [1, 4] was 469.24 ± 11.42^cd pg/mL and the “TNF-α (tumor necrosis factor α)” value [1, 4] was 41.97 ± 1.31^c pg/mL.
For `CCCCCc1cc(O)c(C/C=C(\C)CCC=C(C)C)c(O)c1` [CBG, cannabigerol], the “CAT (catalase)” value [2, 5] was 136.44 ± 4.10^bc U/mL, the “COMP (cartilage oligometrix matrix protein)” value [2, 5] was 21.68 ± 2.13^b ng/mL and the “CRP (c-reactive protein)” value [2, 5] was 7.04 ± 0.85^b mg/L. The “GSH-Px (glutathione peroxidase)” value [2, 5] was 75.87 ± 4.87^bc U/mL, the “IL-1β (interleukin-1β)” value [2, 5] was 35.08 ± 3.41^b pg/mL and the “IL-6 (interleukin-6)” value [2, 5] was 33.14 ± 4.07^b pg/mL. The “IL-10 (interleukin-10)” value [2, 5] was 47.42 ± 5.77^d pg/mL, the “MDA (malondialdehyde)” value [2, 5] was 1.57 ± 0.07^b nmol/mL and the Osteocalcin [2, 5] was 28.15 ± 1.34^ef μg/mL. The “PGE2 (prostaglandin E2)” value [2, 5] was 483 ± 36.86^b pg/mL, the “SOD (superoxide dismutase)” value [2, 5] was 49.13 ± 5.76^bc U/mL and the “TNF-α (tumor necrosis factor α)” value [2, 5] was 56.95 ± 5.61^b pg/mL. The “CAT (catalase)” value [2, 6] was 138.82 ± 2.71^b U/mL, the “COMP (cartilage oligometrix matrix protein)” value [2, 6] was 20.42 ± 2.16^b ng/mL and the “CRP (c-reactive protein)” value [2, 6] was 6.45 ± 0.82^bc mg/L. The “GSH-Px (glutathione peroxidase)” value [2, 6] was 77.29 ± 5.83^b U/mL, the “IL-1β (interleukin-1β)” value [2, 6] was 34.05 ± 2.80^b pg/mL and the “IL-6 (interleukin-6)” value [2, 6] was 32.41 ± 3.81^b pg/mL. The “IL-10 (interleukin-10)” value [2, 6] was 46.17 ± 4.91^d pg/mL, the “MDA (malondialdehyde)” value [2, 6] was 1.60 ± 0.07^b nmol/mL and the Osteocalcin [2, 6] was 30.82 ± 1.35^de μg/mL. For the same molecule, the “PGE2 (prostaglandin E2)” value [2, 6] was 473.71 ± 40.89^b pg/mL, the “SOD (superoxide dismutase)” value [2, 6] was 51.13 ± 3.75^bc U/mL and the “TNF-α (tumor necrosis factor α)” value [2, 6] was 54.32 ± 5.01^b pg/mL.
